Columns and labels:
[1] = tested on: Chinese females, 25-55 years old with hyperpigmented spots; experiment: 9-week randomized, double-blind, vehicle-controlled, split-face tone benefit study; format: in vivo, human; conditions: 0.05% in SC-99 vehicle, 2x a day, vs vehicle
Description: This Example provides evidence of the advantages of using composite signatures and illustrates clinical affirmation of the C-map model for predicting efficacy of skin-lightening agents. This Example supports embodiments related to composite signatures (as described at the end of Example 3). An illustrative “Skin Tone” Signature developed from a genomics study using a composite skin-lightening benchmark agent signature is derived from Niacinamide, Hexamidine, Sepiwhite, and NAG. The signature is used to query C-map and generate a list of potential skin-lightening agents. A top hit, Chlorhexidine Diactate (CD) is entered into clinical testing for confirmation of efficacy. The control for clinical efficacy is a 5% Niacinamide+1% Sepiwhite formulation in the control vehicle.
Primary endpoints are changes in color spot area fraction (image analysis) and melanin spot area fraction (NC2) from baseline. Secondary endpoints are changes from baseline in L*a*b (color image analysis), mean melanin gray scale (NC2), and melanin evenness (NC2). Texture area fraction and pore area fraction are also evaluated to explore impact on other aspects relating to overall skin tone. […] Statistically significant superiority to the high efficacy benchmark skin active agent to vehicle performance is the clinical success criteria.
Study Design: The experimental protocol included a 9-week (1-week preconditioning & 8-week treatment), randomized, double-blind, round robin, vehicle-controlled, split-face tone benefit study. The subject population included 330 Chinese females, 25-55 years old with hyperpigmented spots. 318 subjects completed the entire study. […] Olay Complete SPF 15 UV Moisturizing Lotion is concomitantly used during pre-conditioning and treatment. 0.5 g each test product per half-face (forehead to jaw line; ˜4 mg/cm^2) is dosed 2× a day (morning/evening). Color SAF and treatment area, Melanin SAF, gray scale, evenness by NC2, and additional measurement of Fine Lines and Wrinkle and Texture are by REAL 3.01A. Data collection points include baseline, and ends of weeks 4, 6 and 8. The tested hypothesis is that there is no difference in clinical endpoint versus the benchmark composition treatment. Study site is Kuntai Clinical Center, Beijing, China and study time frame is February 2010 (pre-conditioning) to April 2010.

[2] = tested on: tert-Keratinocyte (tKC) cells; experiment: C-map query with the tone composite benchmark signature (Niacinamide, Hexamidine, Sepiwhite, NAG); format: cell-based, human; conditions: composite signature of Example 3
Protocol: Individual experiments (referred to as batches) generally comprise 30 to 96 samples analyzed using Affymetrix GeneChip® technology platforms, containing 6 replicates of the vehicle control (e.g., DSMO), 2 replicate samples of a positive control that gives a strong reproducible effect in the cell type used, and samples of the test material/perturbagen. Replication of the test material is done in separate batches due to batch effects. In vitro testing was performed in 6-well plates to provide sufficient RNA for GeneChip® analysis (2-4 μg total RNA yield/well).
Human telomerized keratinocytes (tKC) were obtained from the University of Texas, Southwestern Medical Center, Dallas, Tex. tKC cells were grown in EpiLife® media with 1× Human Keratinocyte Growth Supplement (Invitrogen, Carlsbad, Calif.) on collagen I coated cell culture flasks and plates (Becton Dickinson, Franklin Lakes, N.J.). Keratinocytes were seeded into 6-well plates at 20,000 cells/cm^2 24 hours before chemical exposure. Human skin fibroblasts (BJ cell line from ATCC, Manassas, Va.) were grown in Eagle's Minimal Essential Medium (ATCC) supplemented with 10% fetal bovine serum (HyClone, Logan, Utah) in normal cell culture flasks and plates (Corning, Lowell, Mass.). BJ fibroblasts were seeded into 6-well plates at 12,000 cells/cm^2 24 hours before chemical exposure. […]

Q: Which Basal skin tone ([1]; week 8) does the source give for CC(=O)O.CC(=O)O.NC(=N\CCCCCC/N=C(N)/N=C(\N)Nc1ccc(Cl)cc1)/N=C(\N)Nc1ccc(Cl)cc1 [CD, Chlorhexidine Diacetate] here?
A: demonstrated superiority

Q: And the Pore area fraction ([1]; week 8)?
A: superior efficacy

Q: And the Texture area fraction ([1]; week 8)?
A: superior efficacy

Q: And the “NC2 Melanin evenness test” value ([1]; weeks 6 and 8)?
A: superiority to the vehicle

Q: And the “spot area fraction NC2 test” value ([1]; weeks 6 and 8)?
A: significantly reduced fraction when compared to the vehicle

Q: And the “connectivity to the tone composite benchmark signature query” value [2]?
A: top connectivity hit
